Experimental data from patent US10294202B2, “Pyrrolidinones as herbicides” (FMC Corporation, priority 2013, dated 2019).

Assays:
barnyardgrass [1] = experiment: Test A pre-/postemergence herbicide test; assay type: in vivo, Echinochloa crus-galli
Procedure, shortened: (§1)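 Directed soil spray to seeded pots (preemergence) or spray onto one- to two-leaf seedlings 2–10 cm tall (postemergence); loam/sand substrate throughout. Evaluated visually after about 10 days against untreated plants, 0 = no effect, 100 = complete control.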

kochia = experiment: Test A pre-/postemergence herbicide test; assay type: in vivo, Kochia scoparia
Procedure, shortened: as §1

ragweed = experiment: Test A pre-/postemergence herbicide test; assay type: in vivo, Ambrosia elatior
Procedure, shortened: as §1

ryegrass, Italian = experiment: Test A pre-/postemergence herbicide test; assay type: in vivo, Lolium multiflorum
Procedure, shortened: as §1

giant foxtail = experiment: Test A pre-/postemergence herbicide test; assay type: in vivo, Setaria faberii
Procedure, shortened: as §1

pigweed = experiment: Test A pre-/postemergence herbicide test; assay type: in vivo, Amaranthus retroflexus
Procedure, shortened: as §1

wheat = experiment: Test A pre-/postemergence herbicide test; assay type: in vivo, Triticum aestivum; details: Postemergence
Procedure, shortened: as §1

corn = experiment: Test A pre-/postemergence herbicide test; assay type: in vivo, Zea mays; details: Postemergence
Procedure, shortened: as §1

blackgrass = experiment: Test A postemergence herbicide test; assay type: in vivo, Alopecurus myosuroides
Procedure, shortened: (§2)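 Ratings compare treated with untreated plants roughly 10 days after a postemergence application made at the one- to two-leaf stage. Scoring uses 0–100, where 0 means no effect and 100 complete control.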

galium = experiment: Test A postemergence herbicide test; assay type: in vivo, Galium aparine
Procedure, shortened: as §2

rice = experiment: Test B flooded paddy test; assay type: in vivo, Oryza sativa; details: 500 g ai/ha, Flood; scale of 0 to 100 where 0 is no effect and 100 is complete control
Procedure, shortened: (§3)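 Visual ratings from 0, meaning no effect, up to 100, meaning complete control, were made by comparison with untreated controls 13 to 15 days after treatment. Test compounds went straight into floodwater standing 3 cm over the soil of pots holding 2-leaf seedlings.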

sedge, umbrella = experiment: Test B flooded paddy test; assay type: in vivo, Cyperus difformis; details: 500 g ai/ha, Flood; scale of 0 to 100 where 0 is no effect and 100 is complete control
Procedure, shortened: as §3

ducksalad = experiment: Test B flooded paddy test; assay type: in vivo, Heteranthera limosa; details: 500 g ai/ha, Flood; scale of 0 to 100 where 0 is no effect and 100 is complete control
Procedure, shortened: as §3

barnyardgrass [2] = experiment: Test B flooded paddy test; assay type: in vivo, Echinochloa crus-galli; details: 500 g ai/ha, Flood; scale of 0 to 100 where 0 is no effect and 100 is complete control
Procedure, shortened: as §3

[3] = Postemergence, 125 g ai/ha, 0 to 100 scale, 0 is no effect, 100 is complete control
[4] = Postemergence, 500 g ai/ha, 0 to 100 scale (0 no effect, 100 complete control)
[5] = Preemergence, 125 g ai/ha, 0 to 100 scale where 0 is no effect and 100 is complete control
[6] = preemergence, 500 g ai/ha, 0 to 100 scale, 0 is no effect and 100 is complete control
[7] = Postemergence, 125 g ai/ha, visual rating on 0 to 100 scale (0 no effect, 100 complete control), approx. 10 days
[8] = 500 g ai/ha, 0 to 100 scale (0 no effect, 100 complete control)
[9] = 125 g ai/ha, 0 to 100 scale, 0 is no effect, 100 is complete control
[10] = 125 g ai/ha, visual rating, 0 to 100 scale, 0 no effect, 100 complete control, approximately 10 days, preemergence
[11] = Postemergence, 125 g ai/ha, 0 to 100 scale, 0 no effect, 100 complete control
[12] = preemergence, 500 g ai/ha, 0 to 100 scale (0 no effect, 100 complete control)
[13] = preemergence, 500 g ai/ha, 0 to 100 scale
[14] = 125 g ai/ha, 0 to 100 scale, 0 no effect, 100 complete control

O=C1NCC(c2cc3ccccc3o2)C1C(=O)Nc1ccccc1C(F)(F)F (centres unmarked) [Compound 283]
60: Plant response rating, Barnyardgrass (barnyardgrass [1]; [4])
10: Plant response rating, Foxtail, Giant (giant foxtail; [4])
0: Plant response rating, Barnyardgrass (barnyardgrass [1]; [3]) | Plant response rating, Barnyardgrass (barnyardgrass [1]; [5]) | Plant response rating, Barnyardgrass (barnyardgrass [1]; [6]) | Plant response rating, Kochia (kochia; [3]) | Plant response rating, Kochia (kochia; [4]) | Plant response rating, Kochia (kochia; [5]) | Plant response rating, Kochia (kochia; [6]) | Plant response rating, Ragweed (ragweed; [7]) | Plant response rating, Ragweed (ragweed; [4]) | Plant response rating, Ragweed (ragweed; [5]) | Plant response rating, Ragweed (ragweed; [6]) | Plant response rating, Ryegrass, Italian (ryegrass, Italian; [7]) | Plant response rating, Ryegrass, Italian (ryegrass, Italian; [4]) | Plant response rating, Ryegrass, Italian (ryegrass, Italian; [5]) | Ryegrass, Italian plant response rating (ryegrass, Italian; Preemergence, 500 g ai/ha, visual rating on 0 to 100 scale (0 no effect, 100 complete control)) | Plant response rating, Foxtail, Giant (giant foxtail; [3]) | Plant response rating, Foxtail, Giant (giant foxtail; [5]) | Plant response rating, Foxtail, Giant (giant foxtail; [6]) | Plant response rating, Pigweed (pigweed; [7]) | Plant response rating, Pigweed (pigweed; [4]) | Plant response rating, Pigweed (pigweed; [5]) | Plant response rating, Pigweed (pigweed; [6]) | Plant response rating, Wheat (wheat; 125 g ai/ha, visual rating on 0 to 100 scale (0 no effect, 100 complete control), approx. 10 days) | Plant response rating, Wheat (wheat; [8]) | Plant response rating, Corn (corn; [9]) | Plant response rating, Corn (corn; [8]) | Plant response rating, Blackgrass (blackgrass; [9]) | Plant response rating, Blackgrass (blackgrass; [8]) | Plant response rating, Galium (galium; [9]) | Plant response rating, Galium (galium; [8]) | Plant response rating, Rice (rice) | Plant response rating, Sedge, Umbrella (sedge, umbrella)
20: Plant response rating, Barnyardgrass (barnyardgrass [2])
85: Plant response rating, Ducksalad (ducksalad)

Cc1ccc(C2CNC(=O)C2C(=O)Nc2ccccc2F)cc1F (racemic) [Compound 144]
100: Plant response rating, Ducksalad (ducksalad)
70: Foxtail, Giant plant response rating (0 to 100 scale, 0 is no effect, 100 is complete control) (giant foxtail; Postemergence, 500 g ai/ha) | Galium plant response rating (0 to 100 scale, 0 is no effect, 100 is complete control) (galium; 500 g ai/ha)
65: Plant response rating, Barnyardgrass (barnyardgrass [2])
30: Blackgrass plant response rating (0 to 100 scale, 0 is no effect, 100 is complete control) (blackgrass; 500 g ai/ha)
80: Plant response rating, Foxtail, Giant (giant foxtail; [13])
40: Ryegrass, Italian plant response rating (0 to 100 scale, 0 is no effect, 100 is complete control) (ryegrass, Italian; Postemergence, 500 g ai/ha) | Plant response rating, Foxtail, Giant (giant foxtail; [11])
0: Plant response rating, Kochia (kochia; [10]) | Plant response rating, Kochia (kochia; [11]) | Kochia plant response rating (0 to 100 scale, 0 is no effect, 100 is complete control) (kochia; Postemergence, 500 g ai/ha) | Plant response rating, Kochia (kochia; [13]) | Plant response rating, Ragweed (ragweed; [10]) | Plant response rating, Ragweed (ragweed; [11]) | Ragweed plant response rating (0 to 100 scale, 0 is no effect, 100 is complete control) (ragweed; Postemergence, 500 g ai/ha) | Plant response rating, Ragweed (ragweed; [13]) | Plant response rating, Ryegrass, Italian (ryegrass, Italian; [10]) | Plant response rating, Ryegrass, Italian (ryegrass, Italian; [11]) | Plant response rating, Pigweed (pigweed; [10]) | Plant response rating, Pigweed (pigweed; [11]) | Pigweed plant response rating (0 to 100 scale, 0 is no effect, 100 is complete control) (pigweed; Postemergence, 500 g ai/ha) | Plant response rating, Pigweed (pigweed; [13]) | Plant response rating, Wheat (wheat; [14]) | Wheat plant response rating (0 to 100 scale, 0 is no effect, 100 is complete control) (wheat; 500 g ai/ha) | Plant response rating, Corn (corn; [14]) | Plant response rating, Blackgrass (blackgrass; [14]) | Plant response rating, Rice (rice) | Plant response rating, Sedge, Umbrella (sedge, umbrella)
60: Plant response rating, Foxtail, Giant (giant foxtail; [10])
90: Plant response rating, Barnyardgrass (barnyardgrass [1]; [10]) | Plant response rating, Barnyardgrass (barnyardgrass [1]; [11]) | Barnyardgrass plant response rating (0 to 100 scale, 0 is no effect, 100 is complete control) (barnyardgrass [1]; Postemergence, 500 g ai/ha) | Plant response rating, Barnyardgrass (barnyardgrass [1]; [12])
10: Plant response rating, Galium (galium; [14])
20: Plant response rating, Ryegrass, Italian (ryegrass, Italian; [13]) | Corn plant response rating (0 to 100 scale, 0 is no effect, 100 is complete control) (corn; 500 g ai/ha)

O=C1NCC(c2cccc(OC(F)F)c2)C1C(=O)Nc1ccccc1Cl (centres unmarked) [Compound 229]
20: Plant response rating, Ragweed (ragweed; [3]) | Plant response rating, Ryegrass, Italian (ryegrass, Italian; [6])
100: Plant response rating, Ducksalad (ducksalad)
40: Ryegrass, Italian plant response rating (0 to 100 scale, 0 is no effect, 100 is complete control) (ryegrass, Italian; Postemergence, 500 g ai/ha) | Plant response rating, Blackgrass (blackgrass; [9])
30: Plant response rating, Ryegrass, Italian (ryegrass, Italian; [3])
80: Barnyardgrass plant response rating (0 to 100 scale, 0 is no effect, 100 is complete control) (barnyardgrass [1]; Postemergence, 500 g ai/ha) | Plant response rating, Foxtail, Giant (giant foxtail; [3])
0: Plant response rating, Kochia (kochia; [10]) | Plant response rating, Ragweed (ragweed; [10]) | Plant response rating, Pigweed (pigweed; [10]) | Plant response rating, Pigweed (pigweed; [3]) | Pigweed plant response rating (0 to 100 scale, 0 is no effect, 100 is complete control) (pigweed; Postemergence, 500 g ai/ha) | Plant response rating, Pigweed (pigweed; [6]) | Plant response rating, Wheat (wheat; [9]) | Wheat plant response rating (0 to 100 scale, 0 is no effect, 100 is complete control) (wheat; 500 g ai/ha) | Plant response rating, Corn (corn; [9]) | Corn plant response rating (0 to 100 scale, 0 is no effect, 100 is complete control) (corn; 500 g ai/ha) | Plant response rating, Rice (rice) | Plant response rating, Sedge, Umbrella (sedge, umbrella)
50: Plant response rating, Barnyardgrass (barnyardgrass [2])
10: Plant response rating, Kochia (kochia; [3]) | Plant response rating, Ryegrass, Italian (ryegrass, Italian; [10])
60: Kochia plant response rating (0 to 100 scale, 0 is no effect, 100 is complete control) (kochia; Postemergence, 500 g ai/ha) | Ragweed plant response rating (0 to 100 scale, 0 is no effect, 100 is complete control) (ragweed; Postemergence, 500 g ai/ha) | Plant response rating, Galium (galium; [9])
90: Plant response rating, Barnyardgrass (barnyardgrass [1]; [6]) | Plant response rating, Foxtail, Giant (giant foxtail; [10]) | Foxtail, Giant plant response rating (0 to 100 scale, 0 is no effect, 100 is complete control) (giant foxtail; Postemergence, 500 g ai/ha) | Plant response rating, Foxtail, Giant (giant foxtail; [6])
70: Plant response rating, Barnyardgrass (barnyardgrass [1]; [10]) | Plant response rating, Barnyardgrass (barnyardgrass [1]; [3]) | Plant response rating, Kochia (kochia; [6]) | Blackgrass plant response rating (0 to 100 scale, 0 is no effect, 100 is complete control) (blackgrass; 500 g ai/ha) | Galium plant response rating (0 to 100 scale, 0 is no effect, 100 is complete control) (galium; 500 g ai/ha)

CCc1cccc(C2CNC(=O)C2C(=O)Nc2cccc(F)c2F)c1 (racemic) [Compound 170]
0: Plant response rating, Ragweed (ragweed; [10]) | Plant response rating, Ryegrass, Italian (ryegrass, Italian; [10]) | Plant response rating, Wheat (wheat; [9]) | Plant response rating, Sedge, Umbrella (sedge, umbrella)
15: Plant response rating, Rice (rice)
60: Plant response rating, Ragweed (ragweed; [6]) | Ryegrass, Italian plant response rating (0 to 100 scale, 0 is no effect, 100 is complete control) (ryegrass, Italian; Postemergence, 500 g ai/ha) | Plant response rating, Foxtail, Giant (giant foxtail; [3]) | Wheat plant response rating (0 to 100 scale, 0 is no effect, 100 is complete control) (wheat; 500 g ai/ha) | Blackgrass plant response rating (0 to 100 scale, 0 is no effect, 100 is complete control) (blackgrass; 500 g ai/ha) | Plant response rating, Galium (galium; [9]) | Galium plant response rating (0 to 100 scale, 0 is no effect, 100 is complete control) (galium; 500 g ai/ha)
80: Plant response rating, Foxtail, Giant (giant foxtail; [10])
20: Plant response rating, Kochia (kochia; [3]) | Plant response rating, Ragweed (ragweed; [3]) | Plant response rating, Ryegrass, Italian (ryegrass, Italian; [3]) | Plant response rating, Pigweed (pigweed; [3]) | Plant response rating, Corn (corn; [9])
50: Plant response rating, Kochia (kochia; [10]) | Kochia plant response rating (0 to 100 scale, 0 is no effect, 100 is complete control) (kochia; Postemergence, 500 g ai/ha) | Ragweed plant response rating (0 to 100 scale, 0 is no effect, 100 is complete control) (ragweed; Postemergence, 500 g ai/ha) | Plant response rating, Ryegrass, Italian (ryegrass, Italian; [6]) | Plant response rating, Pigweed (pigweed; [10]) | Plant response rating, Pigweed (pigweed; [6]) | Plant response rating, Blackgrass (blackgrass; [9])
70: Plant response rating, Kochia (kochia; [6]) | Corn plant response rating (0 to 100 scale, 0 is no effect, 100 is complete control) (corn; 500 g ai/ha)
100: Plant response rating, Ducksalad (ducksalad)
85: Plant response rating, Barnyardgrass (barnyardgrass [2])
90: Plant response rating, Barnyardgrass (barnyardgrass [1]; [10]) | Plant response rating, Barnyardgrass (barnyardgrass [1]; [3]) | Barnyardgrass plant response rating (0 to 100 scale, 0 is no effect, 100 is complete control) (barnyardgrass [1]; Postemergence, 500 g ai/ha) | Plant response rating, Barnyardgrass (barnyardgrass [1]; [12]) | Foxtail, Giant plant response rating (0 to 100 scale, 0 is no effect, 100 is complete control) (giant foxtail; Postemergence, 500 g ai/ha) | Plant response rating, Foxtail, Giant (giant foxtail; [13])
30: Pigweed plant response rating (0 to 100 scale, 0 is no effect, 100 is complete control) (pigweed; Postemergence, 500 g ai/ha)
